Starred links: 1 amine or outer side, 2 acyl side, 3 side chain; linkers in the order of their positions; H or OH if unused. Non-standard residues stand in square brackets, D forms with d. Residues, ends and D or L forms follow the SMILES beside them. Groups on a side chain read outwards from the residue. *: point of attachment. C20 diacid = O=C(O)CCCCCCCCCCCCCCCCCCC(=O)*; γGlu = O=C(O)[C@H](CCC(=O)[*:2])N[*:1]; NMeI = CC[C@H](C)[C@H](NC)C(=O)O; AEEA = NCCOCCOCC(=O)O
Biological target: T1, hCRHR2 (Homo sapiens, UniProt Q13324)
T1 sequence (Q13324 1-411): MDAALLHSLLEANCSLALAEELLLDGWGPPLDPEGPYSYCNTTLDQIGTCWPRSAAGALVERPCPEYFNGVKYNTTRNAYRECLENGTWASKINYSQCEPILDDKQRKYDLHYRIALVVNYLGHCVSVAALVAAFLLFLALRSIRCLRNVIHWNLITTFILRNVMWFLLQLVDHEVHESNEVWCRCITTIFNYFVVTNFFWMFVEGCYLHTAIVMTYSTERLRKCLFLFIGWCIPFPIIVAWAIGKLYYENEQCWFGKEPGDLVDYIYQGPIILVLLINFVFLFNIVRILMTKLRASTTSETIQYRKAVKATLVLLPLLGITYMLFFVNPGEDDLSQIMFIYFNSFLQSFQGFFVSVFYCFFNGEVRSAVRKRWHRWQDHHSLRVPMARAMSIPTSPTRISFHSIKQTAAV
Experiment: HTRF cAMP assay, determination of hCRHR2 potency (peptide libraries 5 conc., purified peptides 11 conc.)
Format: cell-based
Details: for Selectivity ratio (hCRHR1/ hCRHR2): hCRHR1-EC50/hCRHR2-EC50; for EC50: purified peptides, CHO-K1 cells stably expressing hCRHR2, cAMP HTRF, read-out: hCRHR2 EC50
Source text: HTRF (CisBio) cAMP assay: The assay technology has thoroughly been described in the CisBio HTRF cAMP assay Kit manual (# 62AM4PEC). Briefly, time resolved fluorescence technic was applied to measure cAMP. This technic is based on a competitive immunoassay using cryptate-labelled anti-cAMP antibody and d2-labeled cAMP. In the absence of cellular cAMP, the anti-cAMP cryptate conjugate may get into proximity to cAMP-d2 conjugate and energy (FRET) can be transferred from cryptate to d2.
CHO-K1 cells stably expressing the human corticotropin-releasing hormone receptor 2 (Eurofins/DiscoverX, Cat #95-0048C2 hCRHR2 stable monoclonal cell lines) were used as cells in suspension, brought to life from frozen cell stocks immediately before assay performance.
Concentration-response evaluation of compounds was performed with 5 concentrations of agonist peptides and EC50 values were calculated by nonlinear regression using sigmoid concentration-response with variable slope.
Concentration-response evaluation of compounds was performed with 11 concentrations of agonist peptides and EC50 values were calculated by nonlinear regression using sigmoid concentration-response with variable slope.

Compound | Selectivity ratio (hCRHR1/ hCRHR2) | EC50 [nM]
CC[C@H](C)[C@H](NC)C(=O)N[C@H](C(=O)N[C@H](C(=O)N[C@@H](CO)C(=O)N[C@@H](CC(C)C)C(=O)N[C@@H](CC(=O)O)C(=O)N[C@H](C(=O)N1CCC[C@H]1C(=O)N[C@H](C(=O)NCC(=O)N[C@@H](CC(C)C)C(=O)N[C@@H](CC(C)C)C(=O)N[C@@H](CCC(N)=O)C(=O)N[C@H](C(=O)N[C@@H](CC(C)C)C(=O)N[C@@H](CC(C)C)C(=O)N[C@@H](CCC(=O)O)C(=O)N[C@@H](CCC(N)=O)C(=O)N[C@@H](CCC(=O)O)C(=O)N[C@@H](CCCCN)C(=O)N[C@@H](CCC(N)=O)C(=O)N[C@@H](CCC(=O)O)C(=O)N[C@@H](CCCCN)C(=O)N[C@@H](CCC(=O)O)C(=O)N[C@@H](CCCCN)C(=O)N[C@@H](CCC(N)=O)C(=O)N[C@@H](CCC(N)=O)C(=O)N[C@@H](C)C(=O)N[C@@H](CCCCNC(=O)COCCOCCNC(=O)COCCOCCNC(=O)CC[C@H](NC(=O)CC[C@H](NC(=O)CCCCCCCCCCCCCCCCCCC(=O)O)C(=O)O)C(=O)O)C(=O)N[C@H](C(=O)N[C@@H](CC(N)=O)C(=O)N[C@@H](C)C(=O)N[C@@H](CCC(=O)O)C(=O)N[C@H](C(=O)N[C@@H](CC(C)C)C(=O)N[C@@H](C)C(=O)N[C@@H](CCC(N)=O)C(=O)N[C@H](C(N)=O)C(C)C)[C@@H](C)CC)[C@@H](C)O)[C@@H](C)CC)[C@@H](C)CC)C(C)C)[C@@H](C)O)C(C)C [SEQ ID NO: 10, reference compound] (H-[NMeI]VTSLDVPIGLLQILLEQEKQEKEKQQAK([AEEA-AEEA-γGlu-γGlu-C20 diacid])TNAEILAQV-NH2) | 139 | 0.49
CC[C@H](C)[C@H](NC(C)=O)C(=O)N[C@H](C(=O)N[C@@H](CC(C)C)C(=O)N[C@@H](CO)C(=O)N[C@@H](CC(C)C)C(=O)N[C@@H](CC(=O)O)C(=O)N[C@H](C(=O)N1CCC[C@H]1C(=O)N[C@H](C(=O)NCC(=O)N[C@@H](CC(C)C)C(=O)N[C@@H](CC(C)C)C(=O)N[C@@H](CCC(N)=O)C(=O)N[C@H](C(=O)N[C@@H](CC(C)C)C(=O)N[C@@H](CC(C)C)C(=O)N[C@@H](CCC(=O)O)C(=O)N[C@@H](CCC(N)=O)C(=O)N[C@@H](C)C(=O)N[C@@H](CCCNC(=N)N)C(=O)N[C@@H](C)C(=O)N[C@@H](CCCNC(=N)N)C(=O)N[C@@H](C)C(=O)N[C@@H](C)C(=O)N[C@@H](CCCNC(=N)N)C(=O)N[C@@H](CCC(=O)O)C(=O)N[C@@H](CCC(N)=O)C(=O)N[C@@H](C)C(=O)N[C@@H](CCCCNC(=O)COCCOCCNC(=O)COCCOCCNC(=O)CC[C@H](NC(=O)CC[C@H](NC(=O)CCCCCCCCCCCCCCCCCCC(=O)O)C(=O)O)C(=O)O)C(=O)N[C@H](C(=O)N[C@@H](CC(N)=O)C(=O)N[C@@H](C)C(=O)N[C@@H](CCC(=O)O)C(=O)N[C@H](C(=O)N[C@@H](CC(C)C)C(=O)N[C@@H](C)C(=O)N[C@@H](CCC(=O)O)C(=O)N[C@H](C(N)=O)C(C)C)[C@@H](C)CC)[C@@H](C)O)[C@@H](C)CC)[C@@H](C)CC)C(C)C)C(C)C [SEQ ID NO: 8] (Ac-IVLSLDVPIGLLQILLEQARARAAREQAK([AEEA-AEEA-γGlu-γGlu-C20 diacid])TNAEILAEV-NH2) | 400 | 1.4
CC[C@H](C)[C@H](NC(=O)[C@H](CCC(=O)O)NC(=O)[C@H](C)NC(=O)[C@H](CC(N)=O)NC(=O)[C@@H](NC(=O)[C@@H](NC(=O)[C@H](C)NC(=O)[C@H](CCC(N)=O)NC(=O)[C@H](CCC(=O)O)NC(=O)[C@H](CCCNC(=N)N)NC(=O)[C@H](C)NC(=O)[C@H](C)NC(=O)[C@H](CCCNC(=N)N)NC(=O)[C@H](C)NC(=O)[C@H](CCCNC(=N)N)NC(=O)[C@H](C)NC(=O)[C@H](CCC(N)=O)NC(=O)[C@H](CCC(=O)O)NC(=O)[C@H](CC(C)C)NC(=O)[C@H](CC(C)C)NC(=O)[C@@H](NC(=O)[C@H](CCC(N)=O)NC(=O)[C@H](CC(C)C)NC(=O)[C@H](CC(C)C)NC(=O)CNC(=O)[C@@H](NC(=O)[C@@H]1CCCN1C(=O)[C@@H](NC(=O)[C@H](CC(=O)O)NC(=O)[C@H](CC(C)C)NC(=O)[C@H](CO)NC(=O)[C@H](CC(C)C)NC(=O)[C@@H](NC(=O)[C@@H](NC(=O)[C@@H](N)CCCCNC(=O)COCCOCCNC(=O)COCCOCCNC(=O)CC[C@H](NC(=O)CC[C@H](NC(=O)CC[C@H](NC(=O)CCCCCCCCCCCCCCCCCCC(=O)O)C(=O)O)C(=O)O)C(=O)O)[C@@H](C)CC)C(C)C)C(C)C)[C@@H](C)CC)[C@@H](C)CC)[C@@H](C)O)[C@@H](C)O)C(=O)N[C@@H](CC(C)C)C(=O)N[C@@H](C)C(=O)N[C@@H](CCC(=O)O)C(=O)N[C@H](C(N)=O)C(C)C [SEQ ID NO: 11, reference compound] (H-K([AEEA-AEEA-γGlu-γGlu-γGlu-C20 diacid])IVLSLDVPIGLLQILLEQARARAAREQATTNAEILAEV-NH2) | 419 | 1.6
CC[C@H](C)[C@H](NC)C(=O)N[C@H](C(=O)N[C@@H](CC(C)C)C(=O)N[C@@H](CO)C(=O)N[C@@H](CC(C)C)C(=O)N[C@@H](CC(=O)O)C(=O)N[C@H](C(=O)N1CCC[C@H]1C(=O)N[C@H](C(=O)NCC(=O)N[C@@H](CC(C)C)C(=O)N[C@@H](CC(C)C)C(=O)N[C@@H](CCC(N)=O)C(=O)N[C@H](C(=O)N[C@@H](CC(C)C)C(=O)N[C@@H](CC(C)C)C(=O)N[C@@H](CCC(=O)O)C(=O)N[C@@H](CCC(N)=O)C(=O)N[C@@H](CCC(=O)O)C(=O)N[C@@H](CCCCN)C(=O)N[C@@H](CCC(N)=O)C(=O)N[C@@H](CCC(=O)O)C(=O)N[C@@H](CCCCN)C(=O)N[C@@H](CCC(=O)O)C(=O)N[C@@H](CCCCN)C(=O)N[C@@H](CCC(N)=O)C(=O)N[C@@H](CCC(N)=O)C(=O)N[C@@H](C)C(=O)N[C@@H](CCCCNC(=O)COCCOCCNC(=O)COCCOCCNC(=O)CC[C@H](NC(=O)CC[C@H](NC(=O)CCCCCCCCCCCCCCCCCCC(=O)O)C(=O)O)C(=O)O)C(=O)N[C@H](C(=O)N[C@@H](CC(N)=O)C(=O)N[C@@H](C)C(=O)N[C@@H](CCC(N)=O)C(=O)N[C@H](C(=O)N[C@@H](CC(C)C)C(=O)N[C@@H](C)C(=O)N[C@@H](CCC(N)=O)C(=O)N[C@H](C(N)=O)C(C)C)[C@@H](C)CC)[C@@H](C)O)[C@@H](C)CC)[C@@H](C)CC)C(C)C)C(C)C [SEQ ID NO: 9, reference compound] (H-[NMeI]VLSLDVPIGLLQILLEQEKQEKEKQQAK([AEEA-AEEA-γGlu-γGlu-C20 diacid])TNAQILAQV-NH2) | 392 | 1.3
CC[C@H](C)[C@H](NC(=O)COCCOCCNC(=O)COCCOCCNC(=O)CC[C@H](NC(=O)CC[C@H](NC(=O)CCCCCCCCCCCCCCCCCCC(=O)O)C(=O)O)C(=O)O)C(=O)N[C@H](C(=O)N[C@@H](CC(C)C)C(=O)N[C@@H](CO)C(=O)N[C@@H](CC(C)C)C(=O)N[C@@H](CC(=O)O)C(=O)N[C@H](C(=O)N1CCC[C@H]1C(=O)N[C@H](C(=O)NCC(=O)N[C@@H](CC(C)C)C(=O)N[C@@H](CC(C)C)C(=O)N[C@@H](CCC(N)=O)C(=O)N[C@H](C(=O)N[C@@H](CC(C)C)C(=O)N[C@@H](CC(C)C)C(=O)N[C@@H](CCC(=O)O)C(=O)N[C@@H](CCC(N)=O)C(=O)N[C@@H](C)C(=O)N[C@@H](CCCNC(=N)N)C(=O)N[C@@H](C)C(=O)N[C@@H](CCCNC(=N)N)C(=O)N[C@@H](C)C(=O)N[C@@H](C)C(=O)N[C@@H](CCCNC(=N)N)C(=O)N[C@@H](CCC(=O)O)C(=O)N[C@@H](CCC(N)=O)C(=O)N[C@@H](C)C(=O)N[C@H](C(=O)N[C@H](C(=O)N[C@@H](CC(N)=O)C(=O)N[C@@H](C)C(=O)N[C@@H](CCC(=O)O)C(=O)N[C@H](C(=O)N[C@@H](CC(C)C)C(=O)N[C@@H](C)C(=O)N[C@@H](CCC(=O)O)C(=O)N[C@H](C(N)=O)C(C)C)[C@@H](C)CC)[C@@H](C)O)[C@@H](C)O)[C@@H](C)CC)[C@@H](C)CC)C(C)C)C(C)C [SEQ ID NO: 260] ({C20 diacid-γGlu-γGlu-AEEA-AEEA}-IVLSLDVPIGLLQILLEQARARAAREQATTNAEILAEV-NH2) | 79 | 1.4
